In brackets after ≈: the same amount, converted by molar mass. Like-named read-outs stand apart in the source and are kept apart here.
Tests used:
Assay type in all cases: cell-based
[1] = system: Enterococcus faecalis ATCC29212 B4; assay: MIC determination according to CLSI; details: Enterococcus faecalis ATCC29212, strain B4
Description: (§1) For example, the compounds of the present invention show antimicrobial, e.g. antibacterial, activity against gram positive bacteria, such as coagulase-positive and coagulase-negative Staphylococci, e.g. Staphylococcus aureus, Styphylococcus epidermis, Staphylococcus haemolyticus, Streptococci, e.g. Streptococcus pyogenes, Streptococcus pneumoniae, Streptococcus agalacticae, Enterococci, e.g. Enterococcus faecium and Moraxellaceae, e.g. Moraxella catarrhalis, Pasteurellaceae, e.g. Haemophilus influenzae, as well as against Mycoplasmactaceae, Chlamydiaceae, e.g. Chlamydia trachomatis, Chlamydia pneumoniae and obligatory anaerobes, e.g. Bacteroides fragilis, Clostridium difficile; in vitro in the Agar Dilution Test or Microdilution Test according to the Clinical and Laboratory Standards Institute (CLSI, former National Committee for Clinical Laboratory Standards (NCCLS) 2006, Document M7-A7 Vol. 26, No. 2: “Methods for dilution Antimicrobial Susceptibility Tests for Bacteria that Grow Aerobically—Seventh Edition, Approved Standard”; and in the in vitro determination of the antibacterial activity against anaerobic bacteria according to National Committee for Clinical Laboratory Standards (NCCLS) VOL. 24, No. 2, M11-A5, Methods for Antimicrobal Susceptibility Testing of Anaerobic Bacteria; Approved Standard; Sixth Edition (2004) and in vivo in the septicaemic mouse model against Staphylococcus aureus.
(§2) The antibacterial activity expressed as minimal inhibitory concentration (MIC) was determined according to the approved standard reference recommendations of CLSI (former NCCLS).

[2] = system: Enterococcus faecalis ATCC51299 B5; assay: MIC determination according to CLSI; details: Enterococcus faecalis ATCC51299, strain B5
Description: as §1, §2

[3] = system: Escherichia coli ATCC25922 B1; assay: MIC determination according to CLSI; details: Escherichia coli ATCC25922, strain B1
Description: as §1, §2

[4] = system: Moraxella catarrhalis ATCC43618 B407; assay: MIC determination according to CLSI; details: Moraxella catarrhalis ATCC43618, strain B407
Description: as §1, §2

[5] = system: Staphylococcus aureus (MSSA) ATCC10390 B6; assay: MIC determination according to CLSI; details: Staphylococcus aureus (MSSA) ATCC10390, strain B6
Description: as §1, §2

[6] = system: Staphylococcus aureus (MSSA) ATCC29213 B7; assay: MIC determination according to CLSI; details: Staphylococcus aureus (MSSA) ATCC29213, strain B7
Description: as §1, §2

[7] = system: Streptococcus pneumoniae ATCC49619 B11; assay: MIC determination according to CLSI; details: Streptococcus pneumoniae ATCC49619, strain B11
Description: as §1, §2

[8] = system: Staphylococcus aureus, Enterococcus faecalis, Streptococcus pneumoniae, Moraxella catarrhalis and Escherichia coli; assay: Antibacterial activity (MIC) against panel of clinical relevant bacterial pathogens; details: for activity against the clinical relevant bacterial pathogens: in vitro, statement in words
Experimental: as §2

Structure (SMILES)	MIC ([1]; read-out: MIC) [µg/mL]	MIC ([2]; read-out: MIC) [µg/mL]	MIC ([3]; read-out: MIC) [µg/mL]	MIC ([4]; read-out: MIC) [µg/mL]	MIC ([5]; read-out: MIC) [µg/mL]	MIC ([6]; read-out: MIC) [µg/mL]	MIC ([7]; read-out: MIC) [µg/mL]	factor by which MICs are lower than the MICs of the comparator compounds ([8]; against at least one of the strains shown in Table 1, comparators examples 3, 6, 9, 12, 14 and 17)	activity against the clinical relevant bacterial pathogens [8]	MIC [1] [µg/mL]	MIC [2] [µg/mL]	MIC [3] [µg/mL]	MIC [4] [µg/mL]	MIC [5] [µg/mL]	MIC [6] [µg/mL]	MIC [7] [µg/mL]
C=C[C@]1(C)C[C@@H](OC(=O)CSc2cccc(F)c2)[C@]2(C)C(C)CCC3(CCC(=O)C32)[C@@H](C)[C@@H]1O (stereo partly shown) [Example 1, 14-O-[(3-Fluoro-phenylsulfanyl)-acetyl]-mutilin]	3.2 (≈ 6.55 µM)	> 25.6	> 25.6	≤ 0.0125	≤ 0.0125	≤ 0.0125	0.04 (≈ 0.0819 µM)	≥ 2	very good activity	–	–	–	–	–	–	–
C=C[C@]1(C)C[C@@H](OC(=O)CSc2ccccc2F)[C@]2(C)C(C)CCC3(CCC(=O)C32)[C@@H](C)[C@@H]1O (stereo partly shown) [Example 3, 14-O-[(2-Fluoro-phenylsulfanyl)-acetyl]-mutilin]	> 25.6	> 25.6	> 25.6	0.025 (≈ 0.0512 µM)	0.05 (≈ 0.102 µM)	0.05 (≈ 0.102 µM)	0.16 (≈ 0.327 µM)	–	–	–	–	–	–	–	–	–
C=C[C@]1(C)C[C@@H](OC(=O)CSc2ccc(F)cc2F)[C@]2(C)C(C)CCC3(CCC(=O)C32)[C@@H](C)[C@@H]1O (stereo partly shown) [Example 6, 14-O-[(2,4-Difluoro-phenylsulfanyl)-acetyl]-mutilin]	> 25.6	> 25.6	> 25.6	0.05 (≈ 0.0987 µM)	0.1 (≈ 0.197 µM)	0.1 (≈ 0.197 µM)	0.32 (≈ 0.632 µM)	–	–	–	–	–	–	–	–	–
C=C[C@]1(C)C[C@@H](OC(=O)CSc2cccc(O)c2)[C@]2(C)C(C)CCC3(CCC(=O)C32)[C@@H](C)[C@@H]1O (stereo partly shown) [Example 7, 14-O-[(3-Hydroxy-phenylsulfanyl)-acetyl]-mutilin]	> 25.6	> 25.6	> 25.6	≤ 0.0125	≤ 0.0125	≤ 0.0125	0.02 (≈ 0.0411 µM)	–	very good activity	–	–	–	–	–	–	–
C=C[C@]1(C)C[C@@H](OC(=O)CSc2ccccc2O)[C@]2(C)C(C)CCC3(CCC(=O)C32)[C@@H](C)[C@@H]1O (stereo partly shown) [Example 9, 14-O-[(2-Hydroxy-phenylsulfanyl)-acetyl]-mutilin]	> 25.6	> 25.6	> 25.6	≤ 0.0125	≤ 0.0125	≤ 0.0125	0.16 (≈ 0.329 µM)	–	–	–	–	–	–	–	–	–
C=C[C@]1(C)C[C@@H](OC(=O)COc2cccc(C)c2)[C@]2(C)[C@H](C)CC[C@]3(CCC(=O)[C@H]32)[C@@H](C)[C@@H]1O [Example 19, 14-O-[(3-Methyl-phenoxy)-acetyl]-mutilin]	–	–	–	–	–	–	–	–	–	>6.4	>6.4	>6.4	0.0125 (≈ 0.0267 µM)	0.05 (≈ 0.107 µM)	0.05 (≈ 0.107 µM)	0.64 (≈ 1.37 µM)

More lines, main results first:

MIC ([1]; read-out: MIC) [µg/mL]	MIC ([2]; read-out: MIC) [µg/mL]	MIC ([3]; read-out: MIC) [µg/mL]	MIC ([4]; read-out: MIC) [µg/mL]	MIC ([5]; read-out: MIC) [µg/mL]	MIC ([6]; read-out: MIC) [µg/mL]	MIC ([7]; read-out: MIC) [µg/mL]	factor by which MICs are lower than the MICs of the comparator compounds ([8]; against at least one of the strains shown in Table 1, comparators examples 3, 6, 9, 12, 14 and 17)	Structure (SMILES)	activity against the clinical relevant bacterial pathogens [8]	MIC [1] [µg/mL]	MIC [2] [µg/mL]	MIC [3] [µg/mL]	MIC [4] [µg/mL]	MIC [5] [µg/mL]	MIC [6] [µg/mL]	MIC [7] [µg/mL]
> 25.6	> 25.6	> 25.6	≤ 0.0125	0.025 (≈ 0.0499 µM)	0.025 (≈ 0.0499 µM)	0.04 (≈ 0.0799 µM)	–	C=C[C@]1(C)C[C@@H](OC(=O)CSc2cccc(OC)c2)[C@]2(C)C(C)CCC3(CCC(=O)C32)[C@@H](C)[C@@H]1O (stereo partly shown) [Example 10, 14-O-[(3-Methoxy-phenylsulfanyl)-acetyl]-mutilin]	very good activity	–	–	–	–	–	–	–
> 25.6	> 25.6	> 25.6	0.1 (≈ 0.2 µM)	0.2 (≈ 0.399 µM)	0.2 (≈ 0.399 µM)	0.16 (≈ 0.32 µM)	–	C=C[C@]1(C)C[C@@H](OC(=O)CSc2ccccc2OC)[C@]2(C)C(C)CCC3(CCC(=O)C32)[C@@H](C)[C@@H]1O (stereo partly shown) [Example 12, 14-O-[(2-Methoxy-phenylsulfanyl)-acetyl]mutilin]	–	–	–	–	–	–	–	–
> 6.4	> 6.4	> 6.4	0.0125 (≈ 0.0258 µM)	0.025 (≈ 0.0516 µM)	0.05 (≈ 0.103 µM)	0.16 (≈ 0.33 µM)	–	C=C[C@]1(C)C[C@@H](OC(=O)CSc2cccc(C)c2)[C@]2(C)C(C)CCC3(CCC(=O)C32)[C@@H](C)[C@@H]1O (stereo partly shown) [Example 14, 14-O-[(3-Methyl-phenylsulfanyl)-acetyl]-mutilin]	–	–	–	–	–	–	–	–
12.8 (≈ 27.2 µM)	25.6 (≈ 54.4 µM)	> 25.6	≤ 0.0125	0.025 (≈ 0.0531 µM)	0.025 (≈ 0.0531 µM)	0.04 (≈ 0.085 µM)	–	C=C[C@]1(C)C[C@@H](OC(=O)COc2cccc(O)c2)[C@]2(C)C(C)CCC3(CCC(=O)C32)[C@@H](C)[C@@H]1O (stereo partly shown) [Example 15, 14-O-[(3-Hydroxy-phenoxy)-acetyl]-mutilin]	very good activity	–	–	–	–	–	–	–
> 6.4	> 6.4	> 6.4	0.0125 (≈ 0.0266 µM)	0.05 (≈ 0.106 µM)	0.05 (≈ 0.106 µM)	0.16 (≈ 0.34 µM)	–	C=C[C@]1(C)C[C@@H](OC(=O)COc2ccccc2O)[C@]2(C)C(C)CCC3(CCC(=O)C32)[C@@H](C)[C@@H]1O (stereo partly shown) [Example 17, 14-O-[(2-Hydroxy-phenoxy)-acetyl]-mutilin]	–	–	–	–	–	–	–	–

Source: patent US9061980B2, “Organic compounds” (NABRIVA THERAPEUTICS, AG, priority 2007, dated 2015)
